Measured values taken from article PMC8508960, “Ruthenium Half-Sandwich Type Complexes with Bidentate Monosaccharide Ligands Show Antineoplastic Activity in Ovarian Cancer Cell Models through Reactive Oxygen Species Production” (International Journal of Molecular Sciences, 2021).

Assay: Aqueous stability over time by NMR
Assay type: physicochemical
Conditions: aqueous medium, 2 day old equilibrated sample, KCl added
Source text: The aqueous stability of the complexes was also studied over time. The small shifts of signals attributable to the structural change of the complex can be observed; however, by adding KCl to the 2 day old equilibrated sample, the original signals could be recovered.

Compound: Cc1ccc(C(C)C)cc1.F[P-](F)(F)(F)(F)F.OCC1OC(n2cc(-c3ccccn3)nn2)C(O)C(O)C1O.[Cl][Ru+] (mixture of isomers) [Ru-3a]
- aqueous stability over time (NMR): only the exchange of the coordinating chloride ion by a water molecule occurred in a reversible manner
